# Where two headings read alike, the source gives them in different places.
# Assays:
# [1] = biological target: NS3/NS4 complexes (Hepatitis C virus genotype 1a, UniProt P27958); test: NS3/NS4 inhibition assay (IC50); format: biochemical; details: NS3/NS4 activity; 23° C., 25 μM NS4A peptide
# How it was run: (§1)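 First, NS3 and NS4 are complexed; test compounds are then titrated against the complex at room temperature (23° C.) in Tris-HCl buffer, pH 7.5, supplemented with glycerol (15%), LDAO (0.6 mM), DTT (10 mM) and NS4A peptide (25 μM) to give IC50. Separately, replicon cells give EC50.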
# [2] = tested on: hepatitis C replicon; test: hepatitis C replicon EC50 assay; format: cell-based; details: Hepatitis C virus
# How it was run: as §1
# [3] = hepatitis C replicon, read-out: EC50
# NS3/NS4 complexes, sequence (P27958 1027-1657, one chain of several): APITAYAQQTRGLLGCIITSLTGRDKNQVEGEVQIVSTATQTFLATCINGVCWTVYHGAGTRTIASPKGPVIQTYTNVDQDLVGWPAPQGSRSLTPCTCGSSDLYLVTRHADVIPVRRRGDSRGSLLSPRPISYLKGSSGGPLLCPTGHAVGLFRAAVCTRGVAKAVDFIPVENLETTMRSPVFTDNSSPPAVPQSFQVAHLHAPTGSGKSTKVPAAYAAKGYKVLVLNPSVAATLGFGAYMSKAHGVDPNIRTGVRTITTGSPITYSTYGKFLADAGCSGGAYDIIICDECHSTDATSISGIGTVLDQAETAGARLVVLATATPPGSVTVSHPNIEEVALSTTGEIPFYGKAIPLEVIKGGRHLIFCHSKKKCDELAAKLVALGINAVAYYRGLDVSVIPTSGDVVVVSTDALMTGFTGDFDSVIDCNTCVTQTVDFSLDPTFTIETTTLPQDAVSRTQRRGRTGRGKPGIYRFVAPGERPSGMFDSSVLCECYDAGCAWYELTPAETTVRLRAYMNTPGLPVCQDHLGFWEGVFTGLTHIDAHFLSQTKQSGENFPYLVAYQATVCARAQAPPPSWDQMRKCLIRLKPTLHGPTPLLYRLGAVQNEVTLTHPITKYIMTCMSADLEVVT
SMILES,IC50 [1] [nM],"EC50 [2, 3] [nM]",EC50 [2] [nM]
CC(C)n1c(O[C@@H]2C[C@H]3C(=O)N[C@]4(C(=O)NS(=O)(=O)N(C)C)C[C@H]4/C=C\CCCCC[C@H](NC(=O)OC(C)(C)C)C(=O)N3C2)nc2c(-c3ccccc3F)cccc21 [Compound 261],< 10,10 to 100,–
CC(C)n1c(O[C@@H]2C[C@H]3C(=O)N[C@]4(C(=O)NS(=O)(=O)N(C)C)C[C@H]4/C=C\CCCCC[C@H](NC(=O)OC(C)(C)C)C(=O)N3C2)nc2cc(-c3ccccc3)ccc21 [Compound 262],< 10,10 to 100,–
CC(C)n1c(O[C@@H]2C[C@H]3C(=O)N[C@]4(C(=O)NS(=O)(=O)C5(C)CC5)C[C@H]4/C=C\CCCCC[C@H](Nc4ccccc4)C(=O)N3C2)nc2c(Cl)cccc21 [Compound 263],< 10,10 to 100,–
CC(C)n1c(O[C@@H]2C[C@H]3C(=O)N[C@]4(C(=O)NS(=O)(=O)N(C)C)C[C@H]4/C=C\CCCCC[C@H](NC(=O)OC(C)(C)C)C(=O)N3C2)nc2c(Cl)cccc21 [Compound 264],< 10,< 10,–
CCc1cccc2c1nc(O[C@@H]1C[C@H]3C(=O)N[C@]4(C(=O)NS(=O)(=O)C5(C)CC5)C[C@H]4/C=C\CCCCC[C@H](Nc4ccccc4)C(=O)N3C1)n2C(C)C [Compound 265],< 10,10 to 100,–
CCc1cccc2c1nc(O[C@@H]1C[C@H]3C(=O)N[C@]4(C(=O)NS(=O)(=O)N(C)C)C[C@H]4/C=C\CCCCC[C@H](NC(=O)OC(C)(C)C)C(=O)N3C1)n2C(C)C [Compound 266],< 10,< 10,–
CC(C)n1c(O[C@@H]2C[C@H]3C(=O)N[C@]4(C(=O)NS(=O)(=O)C5(C)CC5)C[C@H]4/C=C\CCCCC[C@H](Nc4ccccc4)C(=O)N3C2)nc2c(C(=O)O)cccc21 [Compound 267],< 10,> 100,–
CC(C)n1c(O[C@@H]2C[C@H]3C(=O)N[C@]4(C(=O)NS(=O)(=O)C5(C)CC5)C[C@H]4/C=C\CCCCC[C@H](Nc4ccccc4)C(=O)N3C2)nc2c(C(N)=O)cccc21 [Compound 268],< 10,10 to 100,–
CNC(=O)c1cccc2c1nc(O[C@@H]1C[C@H]3C(=O)N[C@]4(C(=O)NS(=O)(=O)C5(C)CC5)C[C@H]4/C=C\CCCCC[C@H](Nc4ccccc4)C(=O)N3C1)n2C(C)C [Compound 269],< 10,10 to 100,–
CC(C)n1c(O[C@@H]2C[C@H]3C(=O)N[C@]4(C(=O)NS(=O)(=O)C5(C)CC5)C[C@H]4/C=C\CCCCC[C@H](Nc4ccccc4)C(=O)N3C2)nc2c(C(=O)N(C)C)cccc21 [Compound 270],< 10,> 100,–
CCNC(=O)c1cccc2c1nc(O[C@@H]1C[C@H]3C(=O)N[C@]4(C(=O)NS(=O)(=O)C5(C)CC5)C[C@H]4/C=C\CCCCC[C@H](Nc4ccccc4)C(=O)N3C1)n2C(C)C [Compound 271],< 10,10 to 100,–
CC(C)NC(=O)c1cccc2c1nc(O[C@@H]1C[C@H]3C(=O)N[C@]4(C(=O)NS(=O)(=O)C5(C)CC5)C[C@H]4/C=C\CCCCC[C@H](Nc4ccccc4)C(=O)N3C1)n2C(C)C [Compound 272],< 10,10 to 100,–
CC(C)n1c(O[C@@H]2C[C@H]3C(=O)N[C@]4(C(=O)NS(=O)(=O)C5(C)CC5)C[C@H]4/C=C\CCCCC[C@H](Nc4ccccc4)C(=O)N3C2)nc2c(C(=O)Nc3ccccc3)cccc21 [Compound 273],< 10,10 to 100,–
CC(C)n1c(O[C@@H]2C[C@H]3C(=O)N[C@]4(C(=O)NS(=O)(=O)C5(C)CC5)C[C@H]4/C=C\CCCCC[C@H](Nc4ccccc4)C(=O)N3C2)nc2c(C(=O)NCc3ccccc3)cccc21 [Compound 274],< 10,10 to 100,–
CC(C)n1c(O[C@@H]2C[C@H]3C(=O)N[C@]4(C(=O)NS(=O)(=O)C5(C)CC5)C[C@H]4/C=C\CCCCC[C@H](Nc4ccccc4)C(=O)N3C2)nc2c(C(=O)NCCc3ccccc3)cccc21 [Compound 275],< 10,10 to 100,–
CC(C)n1c(O[C@@H]2C[C@H]3C(=O)N[C@]4(C(=O)NS(=O)(=O)N(C)C)C[C@H]4/C=C\CCCCC[C@H](NC(=O)OC(C)(C)C)C(=O)N3C2)nc2c(C(=O)O)cccc21 [Compound 276],< 10,> 100,–
CC(C)n1c(O[C@@H]2C[C@H]3C(=O)N[C@]4(C(=O)NS(=O)(=O)N(C)C)C[C@H]4/C=C\CCCCC[C@H](NC(=O)OC(C)(C)C)C(=O)N3C2)nc2c(C(N)=O)cccc21 [Compound 277],< 10,< 10,–
CNC(=O)c1cccc2c1nc(O[C@@H]1C[C@H]3C(=O)N[C@]4(C(=O)NS(=O)(=O)N(C)C)C[C@H]4/C=C\CCCCC[C@H](NC(=O)OC(C)(C)C)C(=O)N3C1)n2C(C)C [Compound 278],< 10,10 to 100,–
CC(C)n1c(O[C@@H]2C[C@H]3C(=O)N[C@]4(C(=O)NS(=O)(=O)N(C)C)C[C@H]4/C=C\CCCCC[C@H](NC(=O)OC(C)(C)C)C(=O)N3C2)nc2c(C(=O)N(C)C)cccc21 [Compound 279],< 10,> 100,–
CCNC(=O)c1cccc2c1nc(O[C@@H]1C[C@H]3C(=O)N[C@]4(C(=O)NS(=O)(=O)N(C)C)C[C@H]4/C=C\CCCCC[C@H](NC(=O)OC(C)(C)C)C(=O)N3C1)n2C(C)C [Compound 280],< 10,< 10,–
CC(C)NC(=O)c1cccc2c1nc(O[C@@H]1C[C@H]3C(=O)N[C@]4(C(=O)NS(=O)(=O)N(C)C)C[C@H]4/C=C\CCCCC[C@H](NC(=O)OC(C)(C)C)C(=O)N3C1)n2C(C)C [Compound 281],< 10,< 10,–
CC(C)n1c(O[C@@H]2C[C@H]3C(=O)N[C@]4(C(=O)NS(=O)(=O)N(C)C)C[C@H]4/C=C\CCCCC[C@H](NC(=O)OC(C)(C)C)C(=O)N3C2)nc2c(C(=O)Nc3ccccc3)cccc21 [Compound 282],< 10,–,10 to 100
CC(C)n1c(O[C@@H]2C[C@H]3C(=O)N[C@]4(C(=O)NS(=O)(=O)N(C)C)C[C@H]4/C=C\CCCCC[C@H](NC(=O)OC(C)(C)C)C(=O)N3C2)nc2c(C(=O)NCc3ccccc3)cccc21 [Compound 283],< 10,< 10,–
CC(C)n1c(O[C@@H]2C[C@H]3C(=O)N[C@]4(C(=O)NS(=O)(=O)N(C)C)C[C@H]4/C=C\CCCCC[C@H](NC(=O)OC(C)(C)C)C(=O)N3C2)nc2c(C(=O)NCCc3ccccc3)cccc21 [Compound 284],< 10,–,< 10
COc1cccc2c1nc(O[C@@H]1C[C@H]3C(=O)N[C@]4(C(=O)NS(=O)(=O)C5(C)CC5)C[C@H]4/C=C\CCCCC[C@H](Nc4ccccc4)C(=O)N3C1)n2C(C)C [Compound 285],< 10,< 10,–
COc1cccc2c1nc(O[C@@H]1C[C@H]3C(=O)N[C@]4(C(=O)NS(=O)(=O)N(C)C)C[C@H]4/C=C\CCCCC[C@H](NC(=O)OC(C)(C)C)C(=O)N3C1)n2C(C)C [Compound 286],< 10,< 10,–
CC(C)n1c(O[C@@H]2C[C@H]3C(=O)N[C@]4(C(=O)NS(=O)(=O)C5(C)CC5)C[C@H]4/C=C\CCCCC[C@H](Nc4ccccc4)C(=O)N3C2)nc2c(NC(=O)Nc3ccccc3)cccc21 [Compound 287],< 10,–,10 to 100
CC(C)c1cccc2c1nc(O[C@@H]1C[C@H]3C(=O)N[C@]4(C(=O)NS(=O)(=O)N(C)C)C[C@H]4/C=C\CCCCC[C@H](NC(=O)OC(C)(C)C)C(=O)N3C1)n2C(C)C [Compound 288],< 10,< 10,–
